Data published in US8629132B2, “Kinase inhibitors” (Genosco, priority 2009, dated 2014).

Key:
SYK = molecular target: T1, SYK (Homo sapiens, UniProt P43405); test: Kinase inhibition assay: SYK; assay type: biochemical; conditions: at 1 μM concentration
T1 construct: Purified full-length human SYK, ZAP70, PIM1, PYK2; purchased Carna Biosciences

JAK3 = molecular target: T2, JAK3 (Homo sapiens, UniProt P52333); test: In vitro kinase inhibition profile (Ambit Biosciences); assay type: binding; conditions: reported as percent control, lower numbers indicate stronger activities
T2 construct: JAK3 (JH1 domain-catalytic); purchased Ambit Biosciences
Protocol: (§1) Up to 518 different kinases have been identified in humans. To determine the scope of inhibitory effects of a representative compound of Formula (I) on known kinases, Compound 82 was tested against 104 commercially available kinases (Ambit Biosciences™). 104 kinases included ABL1(E255K)-phosphorylated, ABL1(T315I)-phosphorylated, ABL1-phosphorylated, ACVR1B, ADCK3, AKT1, AKT2, ALK, AURKA, AURKB, AXL, BMPR2, BRAF, BRAF(V600E), BTK, CDK11, CDK2, CDK3, CDK7, CDK9, CHEK1, CSF1R, CSNK1D, CSNK1G2, DCAMKL1, DYRK1B, EGFR, EGFR(L858R), EPHA2, ERBB2, ERBB4, ERK1, FAK, FGFR2, FGFR3, FLT1, FLT3, FLT4, GSK3B, IGF1R, IKK-α, IKK-β, INSR, JAK2(JH1domain-catalytic), JAK3 (JH1 domain-catalytic), JNK 1, JNK2, JNK3, KIT, KIT(D816V), KIT(V559D,T6701), LKB1, LRRK2, LRRK2(G2019S), MAP3K4, MAPKAPK2, MARKS, MEK1, MEK2, MET, MKNK1, MKNK2, MLK1, MTOR, p38-alpha, p38-beta, PAK1, PAK2, PAK-4, PCTK1, PDGFRA, PDGFRB, PDPK1, PIK3C2B, PIK3CA, PIK3CG, PIM1, PIM2, PIM3, PKAC-alpha, PLK1, PLK3, PLK4, PRKCE, PYK2, RAF1, RET, R10K2, ROCK2, RSK2, SNARK, SRC, SRPK3, SYK, TAK1, TGFBR1, TIE2, TRKA, TSSK1B, TYK2(JH1domain-catalytic), ULK2, VEGFR2, YANK3 and ZAP70.
(§2) Inhibition activity of Compound 82 was reported as percent control where lower numbers indicate stronger activities.

KIT(D816V) = molecular target: T3, KIT(D816V) (Homo sapiens, UniProt P10721, D816V); test: as above; assay type: binding; conditions: reported as percent control, lower numbers indicate stronger activities
T3 construct: purchased Ambit Biosciences
Protocol: as §1, §2

PDGFRB = molecular target: T4, PDGFRB (Homo sapiens, UniProt P09619); test: as above; assay type: binding; conditions: reported as percent control, lower numbers indicate stronger activities
T4 construct: purchased Ambit Biosciences
Protocol: as §1, §2

ABL1(T315I) = molecular target: T5, ABL1(T315I) (Homo sapiens, UniProt P00519, T315I); test: as above; assay type: binding; conditions: reported as percent control, lower numbers indicate stronger activities
T5 construct: purchased Ambit Biosciences
Protocol: as §1, §2

KIT = molecular target: T6, KIT (Homo sapiens, UniProt P10721); test: as above; assay type: binding; conditions: reported as percent control, lower numbers indicate stronger activities
T6 construct: purchased Ambit Biosciences
Protocol: as §1, §2

KIT(V559D,T6701) = molecular target: T7, KIT(V559D,T6701) (Homo sapiens, UniProt P10721, T670I/V559D); test: as above; assay type: binding; conditions: reported as percent control, lower numbers indicate stronger activities
T7 construct: purchased Ambit Biosciences
Protocol: as §1, §2

[1] = tested on: TNF-α release in THP-1 cells; test: SYK independent TNF-α release assay (LPS stimulation); assay type: cell-based; conditions: Homo sapiens, 18-hour incubation
Protocol: Compounds of the present invention are tested for their effects on TNF-α release in human acute monocytic leukimia cell line (THP-1) to illustrate potential efficacy at the cellular level. TNF-α is a cytokine involved in systemic inflammation and is a member of a group of cytokines that stimulate the acute phase reaction. The primary role of TNF-α is in the regulation of immune cells. TNF-α is known to induce apoptotic cell death and inflammation and to inhibit early tumorigenesis and viral replication. Dysregulation and, in particular, overproduction of TNF-α have been implicated in a variety of human diseases, autoimmune disease, inflammation, arthritis and cancer.
Production or release of TNF-α is controlled by type of stimulus to which the cell responds. SYK activity is involved in mediating TNF-α production. When stimulated by IgG, cells increase TNF-α production in a SYK dependent manner (i.e., the SYK dependent pathway). However, when stimulated by lipopolysaccharide (LPS), they produce TNF-α in a SYK independent manner.
For SYK independent TNF-α release assay (i.e., via lipopolysaccharide (LPS)-stimulation), THP-1 cells derived from human monocytic cells were obtained from the American Type Culture Collection (ATCC, Manassas, Va.). This cell line was maintained with an RPMI medium (GIBCO™) containing 10 fetal bovine serum (FBS, GIBCO™) and 0.05 mM 2-mercaptoethanol. The THP-1 cells were seeded at 1×10^5 cells/100 μL/well into 96-well culture plates, and treated with lipopolysaccharide (1 μg/ml), and serially diluted compound was then added. After an 18-hour incubation period at 37° C., supernatants were collected for the determination of the TNF-α level by ELISA, and the remaining cells were subjected to an MTT assay to determine the cytotoxic effects.

T2 sequence (P52333 822-1111 limits assumed): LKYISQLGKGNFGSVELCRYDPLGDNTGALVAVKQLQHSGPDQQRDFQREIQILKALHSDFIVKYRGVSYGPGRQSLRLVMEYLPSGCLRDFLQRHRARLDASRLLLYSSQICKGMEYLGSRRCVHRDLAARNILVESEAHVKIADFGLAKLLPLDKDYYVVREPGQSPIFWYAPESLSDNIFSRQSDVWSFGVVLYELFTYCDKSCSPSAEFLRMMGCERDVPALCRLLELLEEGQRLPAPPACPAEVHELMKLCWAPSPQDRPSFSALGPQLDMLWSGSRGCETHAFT
T7 sequence (P10721 26-976 V559D/T670I): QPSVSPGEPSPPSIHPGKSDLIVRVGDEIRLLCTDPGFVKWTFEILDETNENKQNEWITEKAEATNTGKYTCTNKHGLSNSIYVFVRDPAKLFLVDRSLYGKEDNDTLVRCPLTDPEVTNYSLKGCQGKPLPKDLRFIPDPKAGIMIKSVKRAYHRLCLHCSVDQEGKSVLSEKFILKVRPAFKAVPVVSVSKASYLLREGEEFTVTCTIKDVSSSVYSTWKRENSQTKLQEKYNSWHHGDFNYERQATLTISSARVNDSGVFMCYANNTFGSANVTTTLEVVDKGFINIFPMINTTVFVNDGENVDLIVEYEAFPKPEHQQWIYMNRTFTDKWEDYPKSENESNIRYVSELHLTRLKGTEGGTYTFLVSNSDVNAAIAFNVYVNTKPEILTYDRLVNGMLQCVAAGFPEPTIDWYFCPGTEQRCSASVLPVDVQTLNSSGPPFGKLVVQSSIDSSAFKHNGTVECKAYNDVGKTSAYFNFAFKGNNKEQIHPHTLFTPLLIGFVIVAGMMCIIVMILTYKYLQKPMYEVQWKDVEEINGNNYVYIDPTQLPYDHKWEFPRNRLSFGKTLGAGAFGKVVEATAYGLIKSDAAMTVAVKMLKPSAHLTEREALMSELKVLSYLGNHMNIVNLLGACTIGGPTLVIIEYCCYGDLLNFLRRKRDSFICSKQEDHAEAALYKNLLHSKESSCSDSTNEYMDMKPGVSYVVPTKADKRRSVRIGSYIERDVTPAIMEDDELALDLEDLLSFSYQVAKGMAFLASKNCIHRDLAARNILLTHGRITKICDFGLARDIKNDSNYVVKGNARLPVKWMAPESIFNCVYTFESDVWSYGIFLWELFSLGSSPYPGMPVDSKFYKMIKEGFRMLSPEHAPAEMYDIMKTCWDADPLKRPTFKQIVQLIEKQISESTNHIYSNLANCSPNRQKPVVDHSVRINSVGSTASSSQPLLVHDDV
T4 sequence (P09619 33-1106): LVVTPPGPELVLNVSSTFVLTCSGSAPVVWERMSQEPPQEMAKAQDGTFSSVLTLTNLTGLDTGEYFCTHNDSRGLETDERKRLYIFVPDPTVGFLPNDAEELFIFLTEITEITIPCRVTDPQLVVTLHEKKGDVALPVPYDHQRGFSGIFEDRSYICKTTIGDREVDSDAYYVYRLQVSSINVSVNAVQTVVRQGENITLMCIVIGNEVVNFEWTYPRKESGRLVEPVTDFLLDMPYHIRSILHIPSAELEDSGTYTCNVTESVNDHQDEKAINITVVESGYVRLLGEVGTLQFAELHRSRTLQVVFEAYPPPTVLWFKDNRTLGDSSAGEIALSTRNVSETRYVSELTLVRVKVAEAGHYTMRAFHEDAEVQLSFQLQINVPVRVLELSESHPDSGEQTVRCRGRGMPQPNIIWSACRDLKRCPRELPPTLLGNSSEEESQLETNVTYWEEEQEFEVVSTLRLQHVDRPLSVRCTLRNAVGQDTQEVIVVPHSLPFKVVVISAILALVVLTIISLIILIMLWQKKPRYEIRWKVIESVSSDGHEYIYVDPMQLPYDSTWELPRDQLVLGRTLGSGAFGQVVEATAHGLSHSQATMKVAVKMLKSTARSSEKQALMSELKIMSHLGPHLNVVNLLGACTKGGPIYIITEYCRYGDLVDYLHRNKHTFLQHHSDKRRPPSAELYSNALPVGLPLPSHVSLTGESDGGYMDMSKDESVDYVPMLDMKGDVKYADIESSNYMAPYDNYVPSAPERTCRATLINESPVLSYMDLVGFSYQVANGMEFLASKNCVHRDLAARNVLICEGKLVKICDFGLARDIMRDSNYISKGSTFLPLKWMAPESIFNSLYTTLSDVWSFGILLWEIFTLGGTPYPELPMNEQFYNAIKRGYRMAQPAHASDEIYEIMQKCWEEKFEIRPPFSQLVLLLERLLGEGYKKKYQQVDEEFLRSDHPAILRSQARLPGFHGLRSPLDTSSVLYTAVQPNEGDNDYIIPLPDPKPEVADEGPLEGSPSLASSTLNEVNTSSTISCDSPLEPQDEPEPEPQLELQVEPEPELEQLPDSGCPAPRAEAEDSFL
T3 sequence (P10721 26-976 D816V): as the sequence (P10721 26-976 V559D/T670I) above, with D534V, I645T, D791V counted along it
T6 sequence (P10721 26-976): as the sequence (P10721 26-976 V559D/T670I) above, with D534V, I645T counted along it

inhibition at 1 µM (SYK) | % of control JAK3 (JAK3) | % of control (KIT(D816V)) | % of control PDGFRB (PDGFRB) | % of control ABL1(T315I) (ABL1(T315I)) | % of control (remaining binding) (KIT) | Percent of control (KIT(V559D,T6701)) | Compound | inhibition at 0.3 µM ([1]; 0.3 μM) | inhibition at 1 µM ([1]; 1 μM)
96.4% | – | – | – | – | – | – | COc1cc(Nc2ncc(C)c(-n3cc(C)c(CO)c3)n2)cc(OC)c1OC [Compound 21, (4-methyl-1-(5-methyl-2-(3,4,5-trimethoxyphenylamino)pyrimidin-4-yl)-1H-pyrrol-3-yl)methanol] | – | –
– | 5.4% | 0.45% | 1.8% | 35% | 26% | 28% | Cc1cc(C)cc(Nc2ncc(F)c(-n3cc(C)c(CN4CC[C@@H](O)C4)c3)n2)c1 [Compound 82, (R)-1-((1-(2-(3,5-dimethylphenyl-amino)-5-fluoropyrimidin-4-yl)-4-methyl-1H-pyrrol-3-yl)methyl) pyrrolidin-3-ol] | 18.1% | 21.5%
